Results published in ChEMBL document CHEMBL4229480, “Terpenoids with vasorelaxant effects from the Chinese liverwort Scapania carinthiaca” (Bioorg Med Chem, 2018).
Where a name gives a salt, the structure may show the parent alone. Active and inactive are the calls of the source. No cut-off for these calls is given here.

What was measured:
[1] = target: Voltage-gated L-type calcium channel (Rattus norvegicus, UniProt P22002+Q02485+P27732); test: Inhibition of voltage-dependent L-type calcium channel in Wistar rat 3rd-order mesenteric artery assessed as reduction in norepinephrine-induced vessel contraction by myographic method; settings: for inhibition (INH): rat
[2] = tested on: MCF7; test: Cytotoxicity against human MCF7 cells after 24 hrs by MTT assay; type: functional, cell-based; settings: MCF7, 24 h
[3] = tested on: A549; test: Cytotoxicity against human A549 cells after 24 hrs by MTT assay; type: functional, cell-based; settings: A549, 24 h
[4] = tested on: PC-3; test: Cytotoxicity against human PC3 cells after 24 hrs by MTT assay; type: functional, cell-based; settings: PC-3, 24 h
[5] = target: T1, L-type calcium channel (Mus musculus, UniProt Q01815+Q02789+Q99246+Q9JIS7); test: Inhibition of voltage-dependent L-type calcium channel in mouse MOVAS cells assessed as reduction in KCl/extracellular Ca2+-induced increase in intracellular calcium level pretreated for 10 mins followed by KCl addition by Fluo-3/AM dye based flow cytometry; type: cell-based
[6] = target: T1, L-type calcium channel; test: Inhibition of voltage-dependent L-type calcium channel in mouse MOVAS cells assessed as reduction in KCl/extracellular Ca2+-induced increase in intracellular calcium level at 0.1 to 0.5 uM pretreated for 10 mins followed by KCl addition by Fluo-3/AM dye based laser scanning microscopic method; type: cell-based
[7] = species: Mus musculus; test: Vasorelaxant activity in mouse MOVAS1 cells assessed as reduction in KCl-induced increase in intracellular calcium level at 0.1 to 0.5 uM pretreated for 10 mins followed by KCl addition by Fluo-3/AM dye based flow cytometry; type: functional, cell-based
[8] = species: Mus musculus; test: Vasorelaxant activity in mouse MOVAS1 cells assessed as reduction in KCl-induced increase in intracellular calcium level at 0.1 to 0.5 uM pretreated for 10 mins followed by KCl addition by Fluo-3/AM dye based laser scanning microscopic method; type: functional, cell-based
[9] = tested on: Artery; test: Vasorelaxant activity in Wistar rat endothelium-denuded 3rd-order mesenteric artery assessed as reduction in norepinephrine-induced vessel contraction by myographic method; type: functional, tissue-based

SMILES | EC50 [1] | inhibition (INH) [1] | IC50 [2] | IC50 [3] | IC50 [4] | inhibition (INH) [5] | inhibition (INH) [6] | Activity [7] | Activity [8] | %max [9] | EC50 ([9]; Rattus norvegicus, Wistar, Artery)
C[C@H]1CC[C@@]2(C)C(C(=O)O)=CCC[C@H]2[C@]1(C)CCC1=CCOC1=O | 7.3 µM | Dose-dependent effect | > 40 µM | > 40 µM | > 40 µM |  |  |  |  |  | 
C=C(C)[C@H]1C[C@H]2C(=C)CCC[C@]2(C)C[C@@H]1O |  |  | > 40 µM | > 40 µM | > 40 µM |  |  |  |  |  | 
CC1(C)[C@@H]2[C@@H]3[C@H](CC[C@@]3(C)O)C(=O)CC[C@@H]21 |  |  | > 40 µM | > 40 µM | > 40 µM |  |  |  |  |  | 
C=C1CC[C@H](C)[C@@](C)(CCC2=CCOC2=O)C/C=C\C=C/1C(=O)O | 14 µM | Dose-dependent effect | > 40 µM | > 40 µM | > 40 µM |  |  |  |  |  | 
CC1(C)[C@@H]2[C@@H]3[C@H](CC[C@@]3(C)O)[C@@](C)(O)CC[C@@H]21 |  |  | > 40 µM | > 40 µM | > 40 µM |  |  |  |  |  | 
C=C1C(=O)[C@@]23C[C@@H]1CC[C@@H]2[C@@]1(C)CCCC(C)(C)[C@@H]1COC3=O |  |  | 6.6 µM | 2.3 µM | 11.5 µM |  |  |  |  |  | 
COc1cccc2c1C(=O)c1c(O)c3c(c(O)c1C2=O)C[C@@](O)(C(=O)CO)C[C@@H]3O[C@H]1C[C@H](N)[C@H](O)[C@H](C)O1 [DOXORUBICIN HYDROCHLORIDE] |  |  | 0.4 µM | 0.1 µM | 0.8 µM |  |  |  |  |  | 
C=C1C(=O)O[C@H]2C[C@]3(C)CC[C@H](O)C(C)=C3C[C@@H]12 |  |  | > 40 µM | > 40 µM | > 40 µM |  |  |  |  |  | 
C=C1C(=O)O[C@H]2C[C@]3(C)CCC=C(C)[C@H]3C[C@@H]12 |  |  | > 40 µM | > 40 µM | > 40 µM |  |  |  |  |  | 
C=C1CC[C@H](C)[C@@](C)(CCC2=CC(O)OC2=O)C/C=C\C=C/1C(=O)O (stereo partly specified) | 4.1 µM | Dose-dependent effect | > 40 µM | > 40 µM | > 40 µM |  |  |  |  |  | 
CC(C)=CC(=O)C[C@@]1(C)[C@@H]2[C@H]3[C@@H](C)CC[C@]3(O)[C@@H](C)CC[C@@H]21 |  |  | 15.1 µM | 20.8 µM | 13.1 µM |  |  |  |  |  | 
CC1(C)[C@@H]2[C@H]3[C@H](CC[C@@]3(C)O)[C@](O)(CO)CC[C@@H]21 |  |  | > 40 µM | > 40 µM | > 40 µM |  |  |  |  |  | 
C=C1CC[C@H](C)[C@@](C)(CCC2=CC(OC)OC2=O)C/C=C\C=C/1C(=O)O (stereo partly specified) | 22 µM | Dose-dependent effect | > 40 µM | > 40 µM | > 40 µM |  |  |  |  |  | 
CCOC1C=C(CC[C@]2(C)[C@@H](C)CC[C@@]3(C)C(C(=O)O)=CCC[C@@H]23)C(=O)O1 (stereo partly specified) |  |  | > 40 µM | > 40 µM | > 40 µM |  |  |  |  |  | 
CCOC1C=C(CC[C@]2(C)[C@@H](C)CC[C@@]3(C)C(C(=O)O)=CC=C[C@@H]23)C(=O)O1 (stereo partly specified) | 14 µM | Dose-dependent effect | > 40 µM | > 40 µM | > 40 µM |  |  |  |  |  | 
C=C1CC[C@H](C)[C@@](C)(CCC2=CC(OCC)OC2=O)C/C=C\C=C/1C(=O)O (stereo partly specified) | 12 µM | Dose-dependent effect | > 40 µM | > 40 µM | > 40 µM | Dose-dependent effect | Active | inactive | inactive | 20% | 37 µM
